Assay results reported in US10172915B2, “Methods and compositions for activation of sirtuins with Annexin A1 peptides” (Duke University, priority 2013, dated 2019).
No end group written: not given here.

Legend:
[1] = test system: ventricular contractile function ex vivo; conditions: cited from earlier work
[2] = test system: rat coronary ligation models; conditions: cited from earlier work
[3] = test system: adult rat ventricular cardiomyocytes with SIRT3 siRNA; assay: siRNA knock-down of SIRT3 in ARVCs with simulated IR, rescue; format: cell-based; conditions: simulated ischemia-reperfusion
Experimental: ARVC siRNA transfection: after 24 h of incubation with AW Medium (Cellutron Cat #M-8034) without antibiotics, ARVCs were transfected with a specific SIRT3-siRNA or a scrambled RNA (scrRNA) as control, according to manufacturer's protocol (Santa Cruz). Transfection efficiency was estimated by Western blotting of the target protein (A). ARVC, adult rat ventricular cardiomyocytes; OGD, oxygen-glucose deprivation; scrR, scrambled RNA; siR, SIRT3 siRNA; SP, ANXA1sp; V, vehicle control; scrR+V, scramble RNA with vehicle control; scrR+SP, scramble RNA with ANXA1sp; siR+V, SIRT3 siRNA with vehicle control; siR+SP, SIRT3 siRNA with ANXA1sp; cTnI, cardiac troponin I measured in supernatant. Results presented as mean±SD (n=3). GAPDH used as loading control.

SIRT3 [4] = assay: SIRT3 expression in ARVCs after OGD/reoxygenation (Western blot, confocal microscopy); format: cell-based, rat
Experimental: (§1) After 24 h incubation, ARVCs were pre-treated with known concentrations of ANXA1sp or scrPEP in growth medium for 1 h, and subjected to 2 h oxygen-glucose-deprivation (OGD: DMEM no glucose, 85% N2/10% H2/5% CO2) in a OGD station chamber/Anaerobic System (Farma Scientific), followed by reoxygenation with 10 μM ANXA1sp or scrPEP in growth medium for 3, 6, and 24 h in a 37° C. and 5% CO2 growth chamber, respectively.
(§2) Proteins were separated by electrophoresis on SDS-PAGE and then transferred onto PVDF-Plus membrane (Millipore). After being blocked with 5% milk, the immunoblots were probed with appropriate antibodies to SIRT3 (Cell Signaling or Abcam), MPP (Santa Cruz), MnSOD, P-AMPK, COXIV, GAPDH (Cell Signaling), and caspase-3 (Cell Signaling, MA) overnight at 4° C. followed by incubation with the corresponding secondary antibodies at room temperature for 1 h. The blots were visualized with the SuperSignal West Dura Extended Duration Substrate (Thermo Scientific) by a gel imaging system (Alpha Innotech).
Confocal studies were performed as described previously. MitoTraker Deep Red FM (Invitrogen) was added into culture medium to make the final concentration of 0.4 μM and incubated at 37° C. for 45 min. After being washed, fixed, permeabilized, and blocked, rabbit monoclonal IgG anti-SIRT3 (Abcam) was added at 4° C. for overnight. Cells were subsequently incubated with Alexa-488 conjugated goat anti-rabbit IgG (Molecular Probes) for 1 h at RT. Images were acquired with a confocal microscope (Zeiss Invert 510 Microscope).

SIRT3 [5] = assay: Myocardial SIRT3 in DHCA rats (Western blot, confocal microscopy); format: in vivo, rat; conditions: for Expression (44-kDa) and activation (28-kDa) of myocardial SIRT3: 60 min DHCA at 18° C., 2 mg/kg iv, 3 hours post-perfusion, p<0.05 vs vehicle; for SIRT3 level and mitochondrial localization in rat myocardium (confocal): 60 min DHCA, 3 h reperfusion
Experimental: as §2
(§3) Separate groups of animals underwent 60 minutes of DHCA (18° C.) with a similar treatment design, with animals randomly assigned to sham, CPB/DHCA (Vehicle), DHCA+ANXA1sp (ANXA1sp), or DHCA+scrambled peptide (scrPEP). All rats were subjected to 60 minutes DHCA at 18° C. and received either vehicle (1% DMSO saline), ANXA1sp (total 2 mg/kg), or scrPEP (total 2 mg/kg) iv 1 h before CPB and 1 h after reperfusion (FIG. 10C). Sham operated animals were only cannulated/without CPB/DHCA as baseline control. At 3, 6, and 24 h of post-perfusion, heart and serum samples were harvested. Blood samples were collected and stored at −80° C. until analysis. A small portion of heart tissue from each animal was immediately fixed in 10% buffered formalin, embedded in paraffin, and sectioned for immunostaining, confocal colocalization microscopy, and apoptotic TUNEL staining. Myocardial whole-tissue lysates were obtained at the end of each experiment according to the manufacturer's protocol (Affymetrix). The remaining heart tissues were stored at −80° C. FIG. 10 depicts a diagram of the rat surgical model and schematics of the experimental protocols.
Confocal studies were performed as described previously. Paraffin sections were deparaffinized using xylene and descending grades of ethanol, pretreated with microwave irradiation (350 W, for 5 min in 200 ml of 0.1M Citrate buffer, pH 6.0). Tissue sections were incubated with rabbit monoclonal IgG anti-SIRT3 (Cell Signaling) and mouse monoclonal IgG anti-COXIV (Cell Signaling) at 4° C. overnight. After washing, tissue sections were incubated with Alexa555 conjugated donkey anti-mouse IgG and Alexa488 conjugated goat anti-rabbit IgG (Molecular Probes) for 1 h at RT. Images were acquired with a confocal microscope (Zeiss Invert 510 Microscope). The control experiments were performed using mouse IgG and/or rabbit IgG.

cellular levels of ATP = assay: Cellular ATP levels in ARVCs after OGD/reoxygenation; format: cell-based, rat
Experimental: as §1
(§4) Blood samples were collected from each rat at 24 h after CPB/DHCA. Samples were immediately cooled to 4° C. and centrifuged at 3,000 rpm for 10 minutes at 4° C. Serum was collected and stored at −80° C. until assay. Whole cell lysate from heart tissues was obtained according to manufacturer's instruction (Panomics) and used for measurement of pro-inflammatory cytokines IL-6, TNFα and MPO by an ELISA method (Thermo Scientific). Cellular levels of ATP were measured by ELISA (Abeam).

NF-κB p65 subunit = assay: NF-κB p65 acetylation and NF-κB activity in DHCA rats; format: in vivo, rat
Experimental: FIG. 18. Increased SIRT1 expression with ANXA1sp treatment is also associated with reduced acetylation of NF-κB p65 subunit (at lysine 310 residue) following DHCA in rats. Rats underwent 1 hour DHCA at 18° C. and received either vehicle or ANXA1sp (2 mg/kg, iv) followed by 6 hours reperfusion. Levels of acetylated NF-κB p65 were determined in left ventricular myocardium tissue lysates by Western blot. Results presented as mean±SD (n=4), *p<0.001. DHCA, deep hypothermic circulatory arrest; P65-Ac(K310), lysine 310 acetylated NF-κB p65 subunit. GAPDH used as loading control.
as §3

myocardial levels of ATP = assay: Myocardial ATP levels in DHCA rats; format: in vivo, rat; conditions: 60 min DHCA, 3 h reperfusion
Experimental: (§5) FIG. 16. […] Results presented as mean±SD (n=5), *P<0.05 and ^#P<0.01. P-AMPK, phosphorylated AMPK. GAPDH used as loading control.
as §4

[6] = test system: AMP-activated protein kinase (AMPK); assay: AMPK phosphorylation in myocardium of DHCA rats; format: in vivo, rat; conditions: 60 min DHCA, 3 h reperfusion
Experimental: as §5, §3

[7] = test system: AMP-activated protein kinase (AMPK); assay: AMPK phosphorylation in ARVCs after OGD/reoxygenation; format: cell-based, rat; conditions: 2 h OGD, 3 h reoxygenation
Experimental: as §1, §2

[8] = test system: rats, deep hypothermic circulatory arrest; assay: Rat model of deep hypothermic circulatory arrest (DHCA), myocardial injury; format: in vivo; conditions: 60 min DHCA
Experimental: as §3
The following endpoints were assessed: plasma cTnI and heart-type fatty acid binding protein (HFABP, ELISA, Life Diagnosis); myocardial apoptosis as levels of cleaved caspase-3 (Western blot) and TUNEL assays (Roche); and echocardiographic left ventricular function. Myocardial levels of TNFα, IL-6, and myeloperoxidase (MPO) were analyzed by ELISA. SIRT3 and cytochrome c were measured in isolated mitochondria by Western blot.
Blood samples were collected from each rat at 24 h after CPB/DHCA. […] Cellular levels of ATP were measured by ELISA (Abeam).
TUNEL assay was performed using the In Situ Cell Death Detection Kit (Roche Molecular Biochemicals) according to manufacturer's protocol. […] The reaction was terminated with stop solution and fluorescent apoptotic signal was detected using a fluorescence microscope (Zeiss LSM 510 inverted confocal). Ten fields of each tissue section were randomly chosen and a total of 50 cells per field were counted. […]

[9] = test system: mitochondrial protein lysine-acetylation; assay: Mitochondrial protein lysine acetylation in ARVCs after OGD/reoxygenation; format: cell-based, rat; conditions: ARVCs following OGD/reoxygenation
Experimental: as §1

[10] = test system: protein lysine acetylation; assay: Protein lysine acetylation in left ventricular myocardial lysates of DHCA rats; format: in vivo, rat; conditions: 60 min DHCA, 6 h reperfusion
Experimental: (§6) FIG. 15. Increased SIRT3 activity with ANXA1sp treatment is associated with reduced protein lysine acetylation in left ventricular myocardial lysates from rats following 60 min DHCA and 6 h reperfusion (panel A). This included deacetylation of MnSOD (known to increase its reactive oxygen species scavenging activity). Acetylated proteins were immunoprecipitated with anti-acetyl lysine antibody, and deacetylated MnSOD levels were assessed in the supernatant via Western blot (panel B). […] Results presented as mean±SD (n=5/group), *P<0.05. anti-Ac-K, acetylated lysine antibody; IP, immuno-precipitation; WB, Western blot; ROS, reactive oxygen species; MnSOD, manganese superoxide dismutase.
(§7) Separate groups of animals underwent 60 minutes of DHCA (18° C.) with a similar treatment design, with animals randomly assigned to sham, CPB/DHCA (Vehicle), DHCA+ANXA1sp (ANXA1sp), or DHCA+scrambled peptide (scrPEP). All rats were subjected to 60 minutes DHCA at 18° C. and received either vehicle (1% DMSO saline), ANXA1sp (total 2 mg/kg), or scrPEP (total 2 mg/kg) iv 1 h before CPB and 1 h after reperfusion (FIG. 10C). Sham operated animals were only cannulated/without CPB/DHCA as baseline control. At 3, 6, and 24 h of post-perfusion, heart and serum samples were harvested. Blood samples were collected and stored at −80° C. until analysis. […]

[11] = test system: rats rendered acutely hyperglycemic, cardioplegic arrest; assay: Rat CPB/CA model in acutely hyperglycemic rats; format: in vivo; conditions: blood glucose>300 mg/dl, Dextrose 25%, 5 gm/kg
Experimental: Because of the known effects of hyperglycemia to blunt cardioprotective mechanisms, the effects of ANXA1sp were further tested in rats rendered acutely hyperglycemic (blood glucose>300 mg/dl) through perioperative administration of Dextrose (25%, 5 gm/kg). […] Physiological parameters during the conduct of CPB/CA were similar between treatment groups.

reactive oxygen species = assay: Reactive oxygen species in hearts of DHCA rats (ELISA); format: in vivo, rat; conditions: 60 min DHCA, 6 h reperfusion
Experimental: as §6, §7

For “Ac-Ala-Met-Val-Ser-Glu-Phe-Leu-Lys-Gln-Ala-Trp-Phe-Ile-Glu-Asn-Glu-Glu-Gln-Glu-Tyr-Val-Gln-Tyr-Val-Lys (Ac-AMVSEFLKQAWFIENEEQEYVQYVK) [Ac2-26, 25mer peptide derived from annexin 1, commercially available]”, the “Post-ischemic recovery of ventricular contractile function” value [1] is listed as “improves post-ischemic recovery of ventricular contractile function” and the “Neutrophil dependent myocardial necrosis” value [2] is listed as “inhibits neutrophil dependent myocardial necrosis”.

For Ac-Gln-Ala-Trp [ANXA1sp], the “Rescue of increased cell necrosis and apoptosis after SIRT3 knock down” value [3] was “partially rescued”, the “SIRT3 full-length and short form proteins in cell lysates” value (SIRT3 [4]; ARVCs after OGD/reoxygenation, Western blot) was “significantly increased SIRT3 in both full-length and short form proteins” and the “SIRT3 expression in isolated mitochondria” value (SIRT3 [4]; ARVCs subjected to OGD) was “increased SIRT3 expression in isolated mitochondria”. The “SIRT3 in mitochondria by confocal microscopy” value (SIRT3 [4]; cultured ARVCs, 10 μM, 2 h OGD, 3 h reoxygenation) was “significantly increased in mitochondria”, the “Expression (44-kDa) and activation (28-kDa) of myocardial SIRT3” value (SIRT3 [5]) was “significantly restored expression and activation of SIRT3” and the “SIRT3 level and mitochondrial localization in rat myocardium (confocal)” value (SIRT3 [5]) was “robustly increased SIRT3 and was predominantly localized in the mitochondria”. The ATP concentrations (cellular levels of ATP) was “increased ATP concentrations”, the “Acetylation of NF-κB p65 (K310)” value (NF-κB p65 subunit; 1 hour DHCA, 2 mg/kg iv, 6 hours reperfusion) was “attenuated acetylation of NF-kB p65” and the NF-κB transcriptional activity (NF-κB p65 subunit; DHCA rats) was “suppressed NF-κB transcriptional activity”. The “NF-κB-mediated gene expression of TNFα” value (NF-κB p65 subunit; DHCA rats) was “significantly down-regulated”, the “Myocardial levels of ATP” value (myocardial levels of ATP) was “increased myocardial levels of ATP” and the “Phosphorylation of AMPK (P-AMPK) in left ventricular myocardial lysates” value [6] was “increased phosphorylation of AMP-activated protein kinase”. The “Phosphorylation of AMPK” value [7] was “increased phosphorylation of AMPK”, the “Cleaved caspase-3 activity by Western blot” value [8] was “significantly decreased” and the “Myocardial apoptosis by TUNEL staining” value ([8]; 24 h post-reperfusion) was “significantly decreased myocardial apoptosis”. The “Serum cTnI (ELISA)” value ([8]; multiple reperfusion time points) was “significantly decreased”, the Protein acetylation [9] was “significant reduction in protein acetylation” and the “Protein acetylation in myocardial tissue homogenates” value [10] was “significant reduction of protein acetylation”. The “Hyperglycemic exacerbation of myocardial injury and inflammation” value [11] was “significantly attenuated” and the “Cellular levels of reactive oxygen species in hearts” value (reactive oxygen species) was “decreased cellular levels of reactive oxygen species”.

For “Ac-W^10Q^11A^12 [scrPEP, reference compound]”, the “Expression (44-kDa) and activation (28-kDa) of myocardial SIRT3” value (SIRT3 [5]) was “had no such effects” and the “SIRT3 level and mitochondrial localization in rat myocardium (confocal)” value (SIRT3 [5]) was “has no such effects”.
